Assay results: PubChem BioAssay AID1963833 (Molecular Pharmacology Branch, DTP, NCI, 2024)

Test system: 883617-216-R-J1-PDC complex spheroid viability
Experiment: Anticancer human tumor 883617-216-R-J1-PDC patient-derived bladder carcinoma cell line growth inhibition [POLQ]
Conditions: for IC50: curve of first compound; for viability, T/C: stronger effect = lower value
Protocol: Multicellular complex tumor spheroid response to Polymerase (POL) inhibitors (novobiocin, ART-558, RP6685) in combination with a variety of drugs and investigational agents in selected tumor cell lines
The POL inhibitors (novobiocin, ART-558, and RP6685) were evaluated both individually and in combination with standard of care and investigational anticancer small molecules within a complex spheroid model of solid tumors. . Complex spheroids include a stromal component modeled by human endothelial cells (HUVEC) and fibroblasts modeled by human mesenchymal stem cells (MSCs). The concentration ranges selected for each drug and investigational agent were based upon clinically achievable concentrations if the clinical Cmax of the agent was known.
Compounds. The drugs and investigational agents: novobiocin (NSC847541), ART-558 (NSC835418), RP-6685 (NSC848927), peposertib (NSC802822), ceralasertib (NSC780249), elimusertib (NSC800525), camonsertib (NSC841442), AZD-1390 (NSC803789), olaparib (NSC753686), talazoparib (NSC767125), rucaparib (NSC756644), sotorasib (NSC818433), MRTX-1133 (NSC836407), SN-38 (NSC673596), topotecan (NSC609699), epotoside (NSC141540), doxorubicin (NSC123127), gemcitabine (NSC613327), 5-fluorouracil (NSC19893), paclitaxel (NSC125973), vemurafenib (NSC761431), MSA-2 (NSC828583), SN-011 (NSC837082), adavosertib (NSC754352), prexasertib (NSC758257), carboplatin (NSC241240) and oxaliplatin (NSC266046), were obtained from the National Cancer Institute (NCI) Developmental Therapeutics Program Chemical Repository (21). The FDA-approved anticancer drug set is available from the Developmental Therapeutics Program at https://dtp.cancer.gov/organization/dscb/obtaining/. […] The stock solutions were prepared in dimethyl sulfoxide (DMSO, Sigma-Aldrich, St. Louis, MO, cat. D2650), except for the platinum compounds which were prepared in saline (Quality Biological, Gaithersburg, MD, cat. 114-055-101), at 800-fold the tested concentration and stored at -70 degrees C prior to their use. All drugs and investigational agents were tested over a range starting from a high concentration at or near the clinical Cmax and decreasing in half-log increments. If the clinical Cmax for an agent had not been determined, the highest concentration tested was 10 microM, except for SN-38, which was tested at a high concentration of 1 microM.
Cell Culture. All cells were maintained in an incubator at 37 degrees C and 5% CO2 with 95% humidity. The PDC lines were cultured according to standard operating procedures established by the NCI PDMR (https://pdmr.cancer.gov). Table 3 of the manuscript, lists the cell lines along with the number of the three cell types plated to form the mct-spheroids and media for tumor cell growth. After thawing, all PDC lines, except 997537-175-T-J1-PDC and 415267-285-R-J2-PDC, were cultured in Matrigel-coated flasks prepared with a working solution of 1X Ham's F-12 nutrient mix, without supplementation (Thermo Fisher Scientific, cat. 11765054), 100 U/mL penicillin-streptomycin (Thermo Fisher Scientific, cat. 15140122), and 2.5% Matrigel (Corning Inc., Corning, NY, cat. 354248) for the first three passages. The two PDC lines 997537-175-T-J1-PDC and 415267-285-R-J2-PDC were cultured on uncoated flasks. The 857933-349-R-J2-PDC line was cultured in 6C/Colon 1B media containing advanced DMEM/F-12 (Thermo Fisher Scientific, cat. 12634028), 10 mM HEPES (Thermo Fisher Scientific, cat. 15630080), 1X GlutaMAX supplement (Thermo Fisher Scientific, cat. 35050061), 0.1 mg/mL primocin (InvivoGen, San Diego, CA, cat. ant-pm-2), 10% defined fetal bovine serum, heat inactivated (HyClone Laboratories Inc., Logan, UT, cat. SH30070.03HI), 50% L-WRN conditioned media (ATCC, cat. CRL-3276), 1.25 mM N-Acetyl-L-cysteine (Sigma-Aldrich, cat. A9165), 10 mM nicotinamide (Sigma-Aldrich, cat. N0636), 1X B-27 supplement (Thermo Fisher Scientific, cat. 17504044), 1X N-2 supplement (Thermo Fisher Scientific, cat. […]

[1] = second compound 0.0316 µM, first compound 0.0316 µM
[2] = second compound 0.0316 µM, first compound 0.1 µM
[3] = second compound 0.0316 µM, first compound 0.316 µM
[4] = second compound 0.0316 µM, first compound 1 µM
[5] = second compound 0.0316 µM, first compound 3.16 µM
[6] = second compound 0.0316 µM, first compound 10 µM
[7] = second compound 0.1 µM, first compound 0.0316 µM
[8] = second compound 0.1 µM, first compound 0.1 µM
[9] = second compound 0.1 µM, first compound 0.316 µM
[10] = second compound 0.1 µM, first compound 1 µM
[11] = second compound 0.1 µM, first compound 3.16 µM
[12] = second compound 0.1 µM, first compound 10 µM
[13] = second compound 0.316 µM, first compound 0.0316 µM
[14] = second compound 0.316 µM, first compound 0.1 µM
[15] = second compound 0.316 µM, first compound 0.316 µM
[16] = second compound 0.316 µM, first compound 1 µM
[17] = second compound 0.316 µM, first compound 3.16 µM
[18] = second compound 0.316 µM, first compound 10 µM
[19] = second compound 1 µM, first compound 0.0316 µM
[20] = second compound 1 µM, first compound 0.1 µM
[21] = second compound 1 µM, first compound 0.316 µM
[22] = second compound 1 µM, first compound 1 µM
[23] = second compound 1 µM, first compound 3.16 µM
[24] = second compound 1 µM, first compound 10 µM
[25] = second compound 3.16 µM, first compound 0.0316 µM
[26] = second compound 3.16 µM, first compound 0.1 µM
[27] = second compound 3.16 µM, first compound 0.316 µM
[28] = second compound 3.16 µM, first compound 1 µM
[29] = second compound 3.16 µM, first compound 3.16 µM
[30] = second compound 3.16 µM, first compound 10 µM
[31] = second compound 10 µM, first compound 0.0316 µM
[32] = second compound 10 µM, first compound 0.1 µM
[33] = second compound 10 µM, first compound 0.316 µM
[34] = second compound 10 µM, first compound 1 µM
[35] = second compound 10 µM, first compound 3.16 µM
[36] = second compound 10 µM, first compound 10 µM
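Further: spheroids exposed to compounds for seven days before readout.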
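Wherever viability, T/C is given: 100% = DMSO vehicle control viability.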

## COc1cc(C2c3cc4c(cc3C(OC3OC5COC(C)OC5C(O)C3O)C3COC(=O)C23)OCO4)cc(OC)c1O (centres undefined) + COC1C(OC(N)=O)C(O)C(Oc2ccc3c(O)c(NC(=O)c4ccc(O)c(CC=C(C)C)c4)c(=O)oc3c2C)OC1(C)C
Second compound 0.0316 µM
  IC50: > 10000 nM
Second compound 0.1 µM
  IC50: > 10000 nM
Second compound 0.316 µM
  IC50: > 10000 nM
Second compound 1 µM
  IC50: > 10000 nM
Second compound 3.16 µM
  IC50: > 10000 nM
Second compound 10 µM
  IC50: > 10000 nM
[1]
  viability, T/C: 96.1%
[2]
  viability, T/C: 90%
[3]
  viability, T/C: 74.3%
[4]
  viability, T/C: 61.8%
[5]
  viability, T/C: 59.5%
[6]
  viability, T/C: 51.7%
[7]
  viability, T/C: 109%
[8]
  viability, T/C: 89.6%
[9]
  viability, T/C: 71.1%
[10]
  viability, T/C: 69%
[11]
  viability, T/C: 51.2%
[12]
  viability, T/C: 59.3%
[13]
  viability, T/C: 87%
[14]
  viability, T/C: 90.2%
[15]
  viability, T/C: 78.9%
[16]
  viability, T/C: 72.2%
[17]
  viability, T/C: 70.8%
[18]
  viability, T/C: 51%
[19]
  viability, T/C: 97%
[20]
  viability, T/C: 89.5%
[21]
  viability, T/C: 72.9%
[22]
  viability, T/C: 57.9%
[23]
  viability, T/C: 57.3%
[24]
  viability, T/C: 48.9%
[25]
  viability, T/C: 106%
[26]
  viability, T/C: 92.1%
[27]
  viability, T/C: 72.7%
[28]
  viability, T/C: 65.7%
[29]
  viability, T/C: 57.4%
[30]
  viability, T/C: 52.7%
[31]
  viability, T/C: 97.2%
[32]
  viability, T/C: 95.4%
[33]
  viability, T/C: 73%
[34]
  viability, T/C: 59.8%
[35]
  viability, T/C: 55.6%
[36]
  viability, T/C: 53%

## COc1cccc2c1C(=O)c1c(O)c3c(c(O)c1C2=O)CC(O)(C(=O)CO)CC3OC1CC(N)C(O)C(C)O1 (centres undefined) + COC1C(OC(N)=O)C(O)C(Oc2ccc3c(O)c(NC(=O)c4ccc(O)c(CC=C(C)C)c4)c(=O)oc3c2C)OC1(C)C
Second compound 0.0316 µM
  IC50: 186 nM
Second compound 0.1 µM
  IC50: 320 nM
Second compound 0.316 µM
  IC50: 251 nM
Second compound 1 µM
  IC50: 214 nM
Second compound 3.16 µM
  IC50: 308 nM
Second compound 10 µM
  IC50: 151 nM
[1]
  viability, T/C: 62.3%
[2]
  viability, T/C: 49.8%
[3]
  viability, T/C: 45.3%
[4]
  viability, T/C: 4.36%
[5]
  viability, T/C: 0.76%
[6]
  viability, T/C: 0.26%
[7]
  viability, T/C: 67.3%
[8]
  viability, T/C: 59.6%
[9]
  viability, T/C: 50.8%
[10]
  viability, T/C: 6%
[11]
  viability, T/C: 0.55%
[12]
  viability, T/C: 0.43%
[13]
  viability, T/C: 70.4%
[14]
  viability, T/C: 58.2%
[15]
  viability, T/C: 47.5%
[16]
  viability, T/C: 6.74%
[17]
  viability, T/C: 1.39%
[18]
  viability, T/C: 1.91%
[19]
  viability, T/C: 73.9%
[20]
  viability, T/C: 55%
[21]
  viability, T/C: 45%
[22]
  viability, T/C: 3.27%
[23]
  viability, T/C: 0.35%
[24]
  viability, T/C: 1.2%
[25]
  viability, T/C: 61.1%
[26]
  viability, T/C: 48.6%
[27]
  viability, T/C: 50%
[28]
  viability, T/C: 4.18%
[29]
  viability, T/C: 1.17%
[30]
  viability, T/C: 0.37%
[31]
  viability, T/C: 59.5%
[32]
  viability, T/C: 50.9%
[33]
  viability, T/C: 41.5%
[34]
  viability, T/C: 5%
[35]
  viability, T/C: 0.8%
[36]
  viability, T/C: 0.3%
